The values that follow come from patent US20260376293A1, “METHODS FOR STUDYING GPR158 PHARMACOLOGY AND IDENTIFICATION OF ITS LIGANDS” (UNIVERSITY OF FLORIDA RESEARCH FOUNDATION, INCORPORATED, priority 2022, published 2026).

SMILES strings stand for the structures.

In one assay the target is T1, GPR158 (Homo sapiens, UniProt Q5T848).
T1 construct: expressed in transfected cells; host or cells: HEK293T/17
T1 sequence (Q5T848 24-1215): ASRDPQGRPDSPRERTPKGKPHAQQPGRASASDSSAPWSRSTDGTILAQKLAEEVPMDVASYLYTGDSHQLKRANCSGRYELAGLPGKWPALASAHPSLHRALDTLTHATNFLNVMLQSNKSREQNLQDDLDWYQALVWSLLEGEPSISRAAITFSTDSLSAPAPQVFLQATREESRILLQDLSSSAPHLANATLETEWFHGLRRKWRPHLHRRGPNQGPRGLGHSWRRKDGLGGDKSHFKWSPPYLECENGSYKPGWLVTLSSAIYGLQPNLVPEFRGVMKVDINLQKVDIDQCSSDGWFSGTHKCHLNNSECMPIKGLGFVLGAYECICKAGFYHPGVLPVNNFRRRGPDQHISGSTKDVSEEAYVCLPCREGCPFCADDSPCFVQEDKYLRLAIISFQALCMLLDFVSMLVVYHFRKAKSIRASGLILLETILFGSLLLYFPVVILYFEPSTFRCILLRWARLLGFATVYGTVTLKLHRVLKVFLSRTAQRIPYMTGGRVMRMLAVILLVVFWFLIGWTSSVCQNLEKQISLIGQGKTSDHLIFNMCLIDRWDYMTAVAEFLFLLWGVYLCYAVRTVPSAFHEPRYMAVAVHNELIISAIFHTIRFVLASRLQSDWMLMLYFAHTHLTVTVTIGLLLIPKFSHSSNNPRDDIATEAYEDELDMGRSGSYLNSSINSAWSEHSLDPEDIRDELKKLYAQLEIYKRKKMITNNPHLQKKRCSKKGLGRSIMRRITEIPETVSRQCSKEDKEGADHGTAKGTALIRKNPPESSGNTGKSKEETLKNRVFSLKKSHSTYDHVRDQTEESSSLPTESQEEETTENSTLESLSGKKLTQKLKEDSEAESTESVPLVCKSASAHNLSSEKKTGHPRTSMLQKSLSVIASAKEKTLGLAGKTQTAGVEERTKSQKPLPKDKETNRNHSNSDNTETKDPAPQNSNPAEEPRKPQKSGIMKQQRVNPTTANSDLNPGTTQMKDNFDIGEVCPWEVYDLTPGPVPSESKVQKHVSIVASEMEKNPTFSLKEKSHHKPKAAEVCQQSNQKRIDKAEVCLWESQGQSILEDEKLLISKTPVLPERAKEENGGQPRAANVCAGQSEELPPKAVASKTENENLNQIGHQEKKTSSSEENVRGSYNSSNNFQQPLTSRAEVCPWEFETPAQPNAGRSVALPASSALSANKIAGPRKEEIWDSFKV
T1 sequence (P49802 1-495 partner): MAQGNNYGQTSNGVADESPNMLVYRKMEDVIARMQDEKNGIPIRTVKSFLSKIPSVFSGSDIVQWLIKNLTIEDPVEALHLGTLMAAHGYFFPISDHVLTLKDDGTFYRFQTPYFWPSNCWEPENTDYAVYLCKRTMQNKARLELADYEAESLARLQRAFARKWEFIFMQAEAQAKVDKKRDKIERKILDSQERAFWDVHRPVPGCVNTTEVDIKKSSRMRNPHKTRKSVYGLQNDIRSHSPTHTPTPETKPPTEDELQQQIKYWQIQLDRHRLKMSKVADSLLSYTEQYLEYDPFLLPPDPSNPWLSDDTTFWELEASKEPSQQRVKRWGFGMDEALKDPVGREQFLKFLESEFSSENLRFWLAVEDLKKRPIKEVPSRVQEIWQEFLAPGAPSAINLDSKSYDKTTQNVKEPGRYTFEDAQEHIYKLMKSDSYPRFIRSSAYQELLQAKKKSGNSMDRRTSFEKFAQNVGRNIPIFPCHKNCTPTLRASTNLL
T1 sequence (O14775 1-395 partner): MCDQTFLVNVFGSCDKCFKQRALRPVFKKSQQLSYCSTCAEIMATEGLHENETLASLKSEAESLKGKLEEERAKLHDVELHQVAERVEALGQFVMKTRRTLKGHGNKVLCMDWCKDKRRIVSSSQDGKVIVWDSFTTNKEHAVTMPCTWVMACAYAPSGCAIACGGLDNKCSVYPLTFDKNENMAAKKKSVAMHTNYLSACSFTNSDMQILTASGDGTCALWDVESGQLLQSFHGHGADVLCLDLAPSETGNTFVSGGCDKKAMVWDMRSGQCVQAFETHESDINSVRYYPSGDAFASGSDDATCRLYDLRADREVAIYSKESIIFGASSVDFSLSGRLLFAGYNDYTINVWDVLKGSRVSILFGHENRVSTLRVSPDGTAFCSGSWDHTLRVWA
The assay can be described thus: HTRF cAMP Gαi assay, HEK293T/17 cells. The conditions noted are these: forskolin; GPR158-RGS7/Gβ5, HEK293T/17. It counts as cell-based. How it is done: FIGS. 18A-18C: A. Schematic representation of HTRF Gαi CAMP assay. B. cAMP standard curve to establish assay window and dynamic range. The data shown here indicate the HTRF ratio plotted as a function of various concentrations of cAMP standards (0.17 nM to 712 nM). The curve fitting was performed using Nonlinear regression analysis in Graphpad Prism software. C. Gly treatment of GPR158-RGS7/Gβ5 expressing HEK293T/17 cells leads to depletion of cAMP levels in a concentration dependent manner. Data shown here represent the HTRF ratio normalized with respect to the buffer treated cells (control) (Mean±SEM from 1 experiment performed in triplicates).
HEK293T/17 cells were transfected with GPR158, RGS7 and Gβ5 plasmids as mentioned above by Maxcyte electroporation. 24 hours post transfection, cells were harvested by centrifugation, counted, and seeded in a white 384 well plate at a density of 6000 cells per well after resuspending in the stimulation buffer provided with the kit. […] The HTRF signal was measured using the HTRF optic module (donor excitation: 337 nm, donor emission: 620 nm, acceptor emission 665 nm) and laser energy source in the Pherastar FSX microplate reader (BMG Labtech).
The data were plotted as the ratio of fluorescence emission intensities by acceptor and donor (Em 665 nm/Em 620 nm). […]
For orientation: In TR-FRET formats the signal depends on donor and acceptor labels being close together.

A further assay has as its system GlyRs. To be noted: cited from earlier work.

Turning to `NCC(=O)O` [glycine], the “HTRF signal change (cAMP decrease)” value at GPR158 is reported as “increase in HTRF signal in a Gly dose dependent fashion”. Moreover, the “affinity of GlyRs for glycine relative to mGlyR” value with GlyRs is reported as “an order of magnitude lower affinity”.
